The record followed here is ChEMBL document CHEMBL1140621, “2D-autocorrelation descriptors for predicting cytotoxicity of naphthoquinone ester derivatives against oral human epidermoid carcinoma” (Bioorg Med Chem, 2007).

The assay relates to KB. Kind of assay: Cytotoxicity against human KB cells. It is filed as functional, cell-based.

Regarding `COc1cc(C(=O)OCC(C)(C)CC2=CC(=O)c3ccccc3C2=O)c(OC)c2ccccc12`, the midpoint of inhibition, the IC50, lay at 12.5 µM.
